In patent publication US7388071B2, “Composition and method for inducing and enhancing a telomerase reverse transcriptase-reactive cytotoxic T lymphocyte response” (The Regents of the University of California, priority 2000, dated 2008):
Peptide text beside a SMILES is read from it.

Assays:
HLA-A2+ CD34+ cells = conditions: reference 24; cited from earlier work
HLA-A2.1 molecule = molecular target: T1, HLA-A2.1 molecule (Homo sapiens, UniProt P04439, D140Y/D185E/D98H/E176V/E277Q/G131W/G231S/I119V/I121R/I166T/I218V/L300P/L318F/N151K/N90K/P208A/P217A/Q86G/Q94H/R138H/R169H/T345S); test: HLA-A2.1 binding/stabilization assay on TAP- T2 cells; conditions: time required for a 50% reduction in mean fluorescence intensity
T1 construct: endogenous in cells; host or cells: human T2 cells (TAP-, HLA-A2.1+)
Experimental: The relative avidity was measured as previously described (25). Briefly, T2 cells were incubated overnight at 37° C. in RPMI supplemented with human β2-microglobulin (100 ng/ml) (Sigma, St. Louis, Mo.) in the absence (negative control) or presence of the test peptide or the reference peptide 4761[…]484 (SEQ ID NO:7) of HIV-1 reverse transcriptase at various final peptide concentrations (0.1-100 μM). Cells were incubated with Brefeldin A (0.5 μg/ml) for one hour and subsequently stained with a saturating concentration of monoclonal antibody BB7.2 for 30 minutes at +4° C. followed by washing and a second incubation with a goat antibody to mouse Ig (Fab′)2 conjugated to FITC (Caltag, South San Francisco). Cells were then washed, fixed with 1% paraformaldehyde and analyzed in a FACs Calibur cytofluorimeter (Becton & Dickinson, San Jose, Calif.). The mean fluorescence intensity of each concentration minus that of cells without peptide was used as an estimate of peptide binding. […] Dissociation of the test peptide from the HLA-A2.1 molecule reflects the half-life of fluorescence intensity of the peptide/MHC complex over time. The half-life of the complex (DC50) refers to the time (hours) required for a 50% reduction of the TO mean fluorescence intensity (25). Synthetic peptides 571[…]579 (SEQ ID NO:5) of carcinoembryonic antigen (CEA) and 476[…]486 (SEQ ID NO:6) of melanoma antigen gp100 were used as internal controls to account for inter-tests variability and for consistency with previously reported RA and DC50 measures (25).
Since the immunogenicity of MHC Class I-restricted peptides reflects to some degree their binding and stabilizing capacity for MHC Class I molecules (31-33) Applicant sought direct proof of the strength of interaction between the two hTRT peptides and the HLA-A2.1 molecule in a conventional binding/stabilization assay that uses the antigen-transporting deficient (TAP-) HLA-A2.1+ human T2 cells. […] The stability of each peptide bound to HLA-A2.1 was measured as the half-life of the complex

[1] = test system: hTRT+/HLA-A2+ melanoma cell line 624; test: Normal donor CTL against p572(Y), lysis of melanoma 624; assay type: cell-based, human; conditions: normal blood donor PBMC immunized in vitro
Source text: FIG. 6. […] The results are expressed as percent lysis and show by comparison lysis of 624 melanoma cells, and HLA-A2+T2 target cells pulsed with the p572(Y) and p572 wild type peptides, respectively. Nonspecific lysis of T2 cells is shown as a control.
CTL generated against p572 were also able to lyze the hTRT+/HLA-A2+ melanoma cell line 624. The antigen-recognition activity of T cells is intimately linked with recognition of MHC (HLA in humans) molecules.

[2] = test system: HLA-A2+T2 target cells pulsed with peptide; test: In vitro immunization of normal HLA-A2+ donor PBMC with Y-modified hTRT peptides; assay type: cell-based, human
Source text: PBMC from three normal HLA-A2+ individuals were immunized with the Y-modified peptides. The results are summarized as follows (Table VII).

[3] = molecular target: T2, HLA-A2.1 molecule on TAP-deficient human T2 cells (human); test: T2 cell HLA-A2.1 binding/stabilization assay, BB7.2 flow cytometry; ratio of peptide concentration giving 20% of maximal binding, against reference peptide [..] (SEQ ID NO:7) of HIV-1 reverse transcriptase; lower is stronger
T2 construct: MHC class I molecule on the surface of T2 cells; also called MHC Class I
Experimental: Briefly, T2 cells were incubated overnight at 37° C. in RPMI supplemented with human β2-microglobulin (100 ng/ml) (Sigma, St. Louis, Mo.) in the absence (negative control) or presence of the test peptide or the reference peptide 476_1[…]$484$ (SEQ ID NO:7) of HIV-1 reverse transcriptase at various final peptide concentrations (0.1-100 µM). Cells were incubated with Brefeldin A (0.5 µg/ml) for one hour and subsequently stained with a saturating concentration of monoclonal antibody BB7.2 for 30 minutes at +4° C. followed by washing and a second incubation with a goat antibody to mouse Ig (Fab')2 conjugated to FITC (Caltag, South San Francisco). Cells were then washed, fixed with 1% paraformaldehyde and analyzed in a FACs Calibur cytofluorimeter (Becton & Dickinson, San Jose, Calif.). The mean fluorescence intensity of each concentration minus that of cells without peptide was used as an estimate of peptide binding. […] Dissociation of the test peptide from the HLA-A2.1 molecule reflects the half-life of fluorescence intensity of the peptide/MHC complex over time. The half-life of the complex (DC50) refers to the time (hours) required for a 50% reduction of the TO mean fluorescence intensity (25). Synthetic peptides $571$[…]$579$ (SEQ ID NO:5) of carcinoembryonic antigen (CEA) and $476$[…]$486$ (SEQ ID NO:6) of melanoma antigen gp100 were used as internal controls to account for intertests variability and for consistency with previously reported RA and DC50 measures (25).
Since the immunogenicity of MHC Class I-restricted peptides reflects to some degree their binding and stabilizing capacity for MHC Class I molecules (31-33) Applicant sought direct proof of the strength of interaction between the two hTRT peptides and the HLA-A2.1 molecule in a conventional binding/stabilization assay that uses the antigen-transporting deficient (TAP-) HLA-A2.1+ human T2 cells.

In the case of `CC[C@H](C)[C@H](N)C(=O)N[C@@H](CC(C)C)C(=O)N[C@@H](C)C(=O)N[C@@H](CCCCN)C(=O)N[C@@H](Cc1ccccc1)C(=O)N[C@@H](CC(C)C)C(=O)N[C@@H](Cc1c[nH]cn1)C(=O)N[C@@H](Cc1c[nH]c2ccccc12)C(=O)N[C@@H](CC(C)C)C(=O)O` [p540] (H-ILAKFLHWL-OH), the “lysis of HLA-A2+ CD34+ cells by CTL raised in normal individuals” value (HLA-A2+ CD34+ cells) is given as “did not lyse” and the “DC50 (half-life of peptide/HLA-A2.1 complex)” value (HLA-A2.1 molecule) is given as 4 to 6 h.

With `CC(C)C[C@H](NC(=O)[C@H](Cc1ccccc1)NC(=O)[C@H](CC(=O)O)NC(=O)[C@H](CC(=O)O)NC(=O)[C@@H](NC(=O)[C@H](CC(C)C)NC(=O)[C@@H](N)CCCNC(=N)N)C(C)C)C(=O)N[C@@H](CC(C)C)C(=O)N[C@H](C(=O)O)C(C)C` [p865] (H-RLVDDFLLV-OH) the “DC50 (half-life of peptide/HLA-A2.1 complex)” value (HLA-A2.1 molecule) was 2 to 4 h.

For RLFFYRKSV [p572 wild type], the “lysis of melanoma cell line 624 in words” value [1] was “able to lyze”.

For “VLYRYGSFSV (listed as Homo sapiens) [gp100 p476, peptide of human melanoma antigen gp100, internal control]”, the “DC50 (half-life of peptide/HLA-A2.1 complex)” value (HLA-A2.1 molecule) was 4 to 6 h.

In the case of “YELLRSFFYV (listed as Homo sapiens) [p555(Y), Y-modified hTRT peptide p555]”, the “CTL against target cells pulsed with p555(Y)” value (shortened to “CTL … with p555(Y)”) ([2]; donor 218) is reported as 4%, the “CTL … with p555(Y)” value ([2]; donor 219) is reported as 8% and the “CTL … with p555(Y)” value ([2]; donor 222) is reported as 1%.

With “YLARCALFV (listed as Homo sapiens) [p152(Y), Y-modified hTRT peptide p152]” the “CTL against target cells pulsed with p152(Y)” value (“CTL … with p152(Y)” below) ([2]; donor 218) was 7%, the “CTL … with p152(Y)” value ([2]; donor 219) was 2% and the “CTL … with p152(Y)” value ([2]; donor 222) was 1%.

With “YLFFYRKSV (listed as Homo sapiens) [p572(Y), Y-modified hTRT peptide p572]” the “lysis of melanoma cell line 624 in words” value [1] was “kill melanoma cells 624”, the “CTL against target cells pulsed with p572(Y)” value (from here on “CTL … with p572(Y)”) ([2]; donor 218) was 48-50% and the “CTL against target cells pulsed with p572 wild type” value ([2]; donor 218) was 26-46%. The “CTL … with p572(Y)” value ([2]; donor 219) was 4%, the “CTL … with p572(Y)” value ([2]; donor 222) was 27% and the “CTL against target cells pulsed with p572 wild type” value ([2]; donor 222) was 5%.

B1: gp100 p476 synthetic peptide of human melanoma antigen gp100 (peptide)
peptide: VLYRYGSFSV
notes: bought from Neosystem
With B1 the “Relative Avidity (RA)” value [3] was 9.

B2: hTRT p865 synthetic peptide (residues 865-873 of human telomerase reverse transcriptase) (peptide)
peptide: RLVDDFLLV
notes: Synthetic 9mer, bought from the Biopolymer Synthesis Center (CalTech)
In the case of B2, the “Relative Avidity (RA)” value [3] is reported as 2.5.

B3: hTRT p540 synthetic peptide (residues 540-548 of human telomerase reverse transcriptase) (peptide)
peptide: ILAKFLHWL
notes: as for B2
For B3, the “Relative Avidity (RA)” value [3] was 2.9.
